In US4536397A, “Antibiotics, neoviridogriseins, and their method of production” (Sanraku-Ocean Co., Ltd., priority 1983, dated 1985):
Converted amounts (≈) assume the structure as drawn. Starred links: 1 amine or outer side, 2 acyl side, 3 side chain; linkers in the order of their positions; H or OH if unused. Positions of bridges follow the written chain, without caps; N, C: chain ends. Non-standard residues stand in square brackets, D forms with d. Residues, ends and D or L forms follow the SMILES beside them. ξ: configuration not given here. *: point of attachment. X2 = CC(C)[C@H](C)[C@@H](C(=O)[*:2])N(C)[*:1]; NMeLeu(3ξ-Me) = CN[C@H](C(=O)O)C(C)C(C)C; d(cisHyp) = O=C(O)[C@H]1C[C@@H](O)CN1; Picolinoyl(3-OH) = O=C(c1ncccc1O)*; NMePhg = CN[C@H](C(=O)O)c1ccccc1; Thr(3ξ) = CC(O)[C@H](N)C(=O)O; Abu = CC[C@H](N)C(=O)O; Sar = CNCC(=O)O

Experiments:
[1] = test system: Sarcina lutea; test: MIC, tube dilution method (incl. synergism with griseoviridin); type: cell-based
[2] = test system: Mycoplasma gallisepticum KP13; test: MIC, dilution method, Mycoplasma; type: cell-based; design: unit not given beside the values; conditions: Table 4; PPLO enrichment broth (Eiken)
Experimental: (§1) The MIC were determined by the dilution method.
Medium (1): PPLO enrichment broth (Eiken, Japan)
(§2) was tested in vitro agains several Mycoplasma strains.

[3] = test system: Mycoplasma agalactiae PG 2; test: MIC, dilution method, Mycoplasma; type: cell-based; conditions: Table 4; PPLO broth (Chanock's medium; Difco)
Experimental: as §1
(§3) (2): PPLO broth (Chanock's medium; Difco)
as §2

[4] = test system: Mycoplasma fermentans; test: MIC, dilution method, Mycoplasma; type: cell-based; conditions: Table 4; PPLO broth (Chanock's medium; Difco)
Experimental: as §1, §3, §2

[5] = test system: Mycoplasma pulmonis PG 22; test: MIC, dilution method, Mycoplasma; type: cell-based; conditions: Table 4; PPLO broth (Chanock's medium; Difco)
Experimental: as §1, §3, §2

[6] = Solubility in solvents; type: physicochemical; conditions: for solubility in organic solvents: methanol, ethanol, propanols, n-butanol, dioxane, acetates, ketones, benzene, toluene, chlorinated solvents, DMF, DMSO
[7] = test system: Pseudeomonas aeruginosa; test: MIC, tube dilution method; type: cell-based; conditions: BHI broth
[8] = test system: Staphylococcus aureus; test: MIC repeated with a far lower dilution rate; type: cell-based; conditions: far lower dilution rate, brain heart infusion broth
Excerpt: This MIC experiment was based on the two-fold dilutions. To differentiate neoviridogrisein II and viridogrisein in their antibiotic activity, the MIC determination was repeated with a far lower dilution rate.
Medium: brain heart infusion broth

[9] = test system: Escherichia coli; test: MIC, tube dilution method; type: cell-based; conditions: BHI broth
[10] = test system: Candida albicans; test: MIC, tube dilution method; type: cell-based; conditions: malt extract-yeast extract medium
[11] = test system: Streptococcus pyogenes; test: MIC, tube dilution method; type: cell-based; conditions: BHI broth containing 10% horse blood
[12] = test system: Salmonella gallinanum; test: MIC, tube dilution method; type: cell-based; conditions: BHI broth
[13] = test system: Proteus vulgaris; test: MIC, tube dilution method; type: cell-based; conditions: BHI broth
[14] = test system: Staphylococcus aureus; test: MIC, tube dilution method; type: cell-based; conditions: BHI broth
[15] = test system: Bacillus subtilis ATCC 6633; test: MIC, tube dilution method; type: cell-based; conditions: BHI broth
[16] = test system: Staphylococcus sp.; test: MIC, tube dilution method; type: cell-based; conditions: BHI broth
[17] = test system: Diplococcus pneumoniac type 1; test: MIC, tube dilution method; type: cell-based, Diplococcus pneumoniae; conditions: BHI broth containing 10% horse blood

SMILES: C[C@@H]1C/C=C2\SC[C@@H](NC(=O)c3coc(n3)C[C@H](O)C[C@H](O)/C=C/C=C/CNC2=O)C(=O)O1 [GV, griseoviridin]
- MIC ([1]; Table 3, varied ratios of neoviridogriseins mixture to griseoviridin, tube dilution, brain heart infusion broth): 0.250 µg/mL
- MIC [2]: 0.10
- MIC [3]: 3.13
- MIC [4]: < 0.05
- MIC [5]: 6.25

SMILES: CC(C)C[C@H]1NC(=O)[C@@H](NC(=O)c2ncccc2O)[C@@H](C)OC(=O)[C@H](c2ccccc2)N(C)C(=O)[C@H](C)NC(=O)[C@H]([C@@H](C)C(C)C)N(C)C(=O)CN(C)C(=O)[C@H]2C[C@@H](O)CN2C1=O [VG, viridogrisein] ({Picolinoyl(3-OH)}-T[dL][d(cisHyp)][Sar][X2]A[NMePhg]; ester 1-C)
- MIC ([1]; Table 1, BHI broth): 0.2 µg/mL
- solubility in organic solvents [6]: soluble
- solubility in petroleum ether and hexane [6]: practically insoluble
- solubility in water and ethyl ether [6]: hardly soluble
- MIC [7]: > 25 µg/mL
- MIC ([8]; strain 209 P): 0.133 µg/mL (≈ 0.151 µM)
- MIC ([8]; strain (EM, CM, SM, PC, TC)r): 0.334 µg/mL (≈ 0.38 µM)
- MIC ([8]; strain (TC, CP, PC)r): 0.334 µg/mL (≈ 0.38 µM)
- MIC ([8]; strain Bx-1633(PC)r): 0.267 µg/mL (≈ 0.304 µM)
- MIC ([8]; strain Russell(PC)r): 0.267 µg/mL (≈ 0.304 µM)
- MIC ([8]; strain Smith): 0.267 µg/mL (≈ 0.304 µM)
- MIC [9]: > 25 µg/mL
- MIC [2]: 0.10
- MIC [10]: > 25 µg/mL
- MIC [11]: 0.4 µg/mL (≈ 0.455 µM)
- MIC [12]: > 25 µg/mL
- MIC [13]: > 25 µg/mL
- MIC ([14]; strain 209P): 0.2 µg/mL (≈ 0.228 µM)
- MIC ([14]; strain (BX-1633)(PC)r): 0.4 µg/mL (≈ 0.455 µM)
- MIC ([14]; strain (EM)r): 0.4 µg/mL (≈ 0.455 µM)
- MIC ([14]; strain (EM, CM, SM, PC, TC)r): 0.4 µg/mL (≈ 0.455 µM)
- MIC ([14]; strain (EM, OM)r): 0.8 µg/mL (≈ 0.91 µM)
- MIC ([14]; strain (PC, EM, NM)r): 0.8 µg/mL (≈ 0.91 µM)
- MIC ([14]; strain (PC, TC, EM, LM)r 1): 6.25 µg/mL (≈ 7.11 µM)
- MIC ([14]; strain (PC, TC, EM, LM)r 2): 6.25 µg/mL (≈ 7.11 µM)
- MIC ([14]; strain (SM, STH)r): 0.4 µg/mL (≈ 0.455 µM)
- MIC ([14]; strain (STH)r): 1.6 µg/mL (≈ 1.82 µM)
- MIC ([14]; strain (TC, CP, PC)r): 0.4 µg/mL (≈ 0.455 µM)
- MIC ([14]; strain (TC, EM, LM, CP)r): 6.25 µg/mL (≈ 7.11 µM)
- MIC ([14]; strain Russell(PC)r): 0.4 µg/mL (≈ 0.455 µM)
- MIC ([14]; strain Smith): 0.4 µg/mL (≈ 0.455 µM)
- MIC [3]: 0.78
- MIC [4]: < 0.05
- MIC [5]: 1.56
- MIC [15]: 0.8 µg/mL (≈ 0.91 µM)
- MIC ([16]; Staphylococcus sp. (PC)r): 0.4 µg/mL (≈ 0.455 µM)
- MIC ([16]; Staphylococcus sp.): 0.8 µg/mL (≈ 0.91 µM)
- MIC [17]: 0.4 µg/mL (≈ 0.455 µM)

SMILES: CC[C@@H]1NC(=O)[C@H](C(C)C(C)C)N(C)C(=O)CN(C)C(=O)[C@H]2CCCN2C(=O)[C@@H](CC(C)C)NC(=O)[C@@H](NC(=O)c2ncccc2O)C(C)OC(=O)[C@H](c2ccccc2)N(C)C1=O (stereo partly drawn) [NV I, neoviridogrisein I] ({Picolinoyl(3-OH)}-[Thr(3ξ)][dL][dP][Sar][NMeLeu(3ξ-Me)][Abu][NMePhg]; ester 1-C)
- MIC ([1]; Table 1, BHI broth): 0.2 µg/mL
- solubility in organic solvents [6]: soluble
- solubility in petroleum ether and hexane [6]: practically insoluble
- solubility in water and ethyl ether [6]: hardly soluble
- MIC [7]: > 25 µg/mL
- MIC [9]: > 25 µg/mL
- MIC [10]: > 25 µg/mL
- MIC [11]: 0.4 µg/mL (≈ 0.456 µM)
- MIC [12]: > 25 µg/mL
- MIC [13]: > 25 µg/mL
- MIC ([14]; strain 209P): 0.2 µg/mL (≈ 0.228 µM)
- MIC ([14]; strain (BX-1633)(PC)r): 0.4 µg/mL (≈ 0.456 µM)
- MIC ([14]; strain (EM)r): 0.4 µg/mL (≈ 0.456 µM)
- MIC ([14]; strain (EM, CM, SM, PC, TC)r): 0.4 µg/mL (≈ 0.456 µM)
- MIC ([14]; strain (EM, OM)r): 0.8 µg/mL (≈ 0.912 µM)
- MIC ([14]; strain (PC, EM, NM)r): 0.8 µg/mL (≈ 0.912 µM)
- MIC ([14]; strain (PC, TC, EM, LM)r 1): 6.25 µg/mL (≈ 7.13 µM)
- MIC ([14]; strain (PC, TC, EM, LM)r 2): 6.25 µg/mL (≈ 7.13 µM)
- MIC ([14]; strain (SM, STH)r): 0.4 µg/mL (≈ 0.456 µM)
- MIC ([14]; strain (STH)r): 0.8 µg/mL (≈ 0.912 µM)
- MIC ([14]; strain (TC, CP, PC)r): 0.2 µg/mL (≈ 0.228 µM)
- MIC ([14]; strain (TC, EM, LM, CP)r): 6.25 µg/mL (≈ 7.13 µM)
- MIC ([14]; strain Russell(PC)r): 0.2 µg/mL (≈ 0.228 µM)
- MIC ([14]; strain Smith): 0.2 µg/mL (≈ 0.228 µM)
- MIC [15]: 0.4 µg/mL (≈ 0.456 µM)
- MIC ([16]; Staphylococcus sp. (PC)r): 0.8 µg/mL (≈ 0.912 µM)
- MIC ([16]; Staphylococcus sp.): 0.8 µg/mL (≈ 0.912 µM)
- MIC [17]: 0.2 µg/mL (≈ 0.228 µM)
